Results taken from US20080306076A1, “MODULATION OF CHEMOSENSORY RECEPTORS AND LIGANDS ASSOCIATED THEREWITH” (SENOMYX, INC., priority 2007, published 2008).
Changes are numbered by the printed parent chain.

Key:
[1] = target: T1, hT1R1 D192A (Homo sapiens, UniProt Q7RTX1, D192A); assay: Mutagenesis study, hT1R1 mutant D192A; type: cell-based; conditions: D192 mutant, FIG. 11
T1 construct: expressed in transfected cells; host or cells: HEK293, transient transfection
T1 sequence (Q7RTX1 21-841 D192A): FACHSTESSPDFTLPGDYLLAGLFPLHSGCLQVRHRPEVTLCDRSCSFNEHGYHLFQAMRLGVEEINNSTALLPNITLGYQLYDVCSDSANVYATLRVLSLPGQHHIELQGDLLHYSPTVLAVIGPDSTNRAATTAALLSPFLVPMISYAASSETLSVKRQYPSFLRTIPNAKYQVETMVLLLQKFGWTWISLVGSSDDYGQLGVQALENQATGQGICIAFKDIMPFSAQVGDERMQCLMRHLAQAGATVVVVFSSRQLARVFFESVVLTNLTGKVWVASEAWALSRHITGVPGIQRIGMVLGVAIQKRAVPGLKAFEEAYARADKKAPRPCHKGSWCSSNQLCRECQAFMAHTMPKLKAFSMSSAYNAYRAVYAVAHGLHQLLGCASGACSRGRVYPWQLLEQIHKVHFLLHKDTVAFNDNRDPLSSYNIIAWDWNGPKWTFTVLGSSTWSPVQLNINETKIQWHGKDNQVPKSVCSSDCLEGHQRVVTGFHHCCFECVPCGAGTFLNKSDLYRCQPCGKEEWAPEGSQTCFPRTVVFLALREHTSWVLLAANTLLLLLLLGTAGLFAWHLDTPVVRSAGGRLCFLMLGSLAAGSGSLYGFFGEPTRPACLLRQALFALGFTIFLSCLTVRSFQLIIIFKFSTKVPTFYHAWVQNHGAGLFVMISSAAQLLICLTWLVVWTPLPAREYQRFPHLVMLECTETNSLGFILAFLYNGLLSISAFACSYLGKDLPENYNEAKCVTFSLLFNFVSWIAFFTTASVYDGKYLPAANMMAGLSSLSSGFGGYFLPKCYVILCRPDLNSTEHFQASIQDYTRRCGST
T1 sequence (Q923K1 21-858 partner): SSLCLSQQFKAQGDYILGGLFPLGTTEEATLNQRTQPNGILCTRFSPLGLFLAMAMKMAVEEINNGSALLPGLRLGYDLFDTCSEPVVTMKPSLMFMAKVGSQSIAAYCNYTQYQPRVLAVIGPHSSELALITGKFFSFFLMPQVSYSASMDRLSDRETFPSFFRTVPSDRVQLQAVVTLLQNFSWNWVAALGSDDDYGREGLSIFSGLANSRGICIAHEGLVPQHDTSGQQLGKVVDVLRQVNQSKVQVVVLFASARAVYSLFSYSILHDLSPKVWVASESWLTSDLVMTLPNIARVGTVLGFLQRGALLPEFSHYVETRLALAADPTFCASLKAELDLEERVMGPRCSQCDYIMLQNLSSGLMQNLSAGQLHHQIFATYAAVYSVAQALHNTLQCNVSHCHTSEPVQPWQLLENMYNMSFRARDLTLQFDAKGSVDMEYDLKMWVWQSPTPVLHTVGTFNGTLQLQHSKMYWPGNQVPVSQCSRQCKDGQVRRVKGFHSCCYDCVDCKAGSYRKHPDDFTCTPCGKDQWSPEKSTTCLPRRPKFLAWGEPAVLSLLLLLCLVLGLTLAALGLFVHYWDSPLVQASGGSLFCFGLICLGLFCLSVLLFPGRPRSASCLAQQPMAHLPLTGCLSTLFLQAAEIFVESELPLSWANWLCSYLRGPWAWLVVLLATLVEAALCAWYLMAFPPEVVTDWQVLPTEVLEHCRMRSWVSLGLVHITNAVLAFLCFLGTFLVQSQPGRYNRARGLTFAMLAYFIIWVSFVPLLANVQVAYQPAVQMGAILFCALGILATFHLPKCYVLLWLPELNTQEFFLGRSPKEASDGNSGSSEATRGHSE
Description: (§1) In order to further define the interaction sites of umami stimuli, we performed site-directed mutagenesis on human T1R1 VFT. The mutagenesis was done using the routine PCR-based method. […] were transiently transfected into HEK293 cell together with the rat T1R3 wild type cDNA, and the transfected cells were characterized using an automated FLIPR machine or a calcium imaging system as described in our previous patent applications.

[2] = target: T2, hT1R1 E301A (Homo sapiens, UniProt Q7RTX1, E301A); assay: Mutagenesis study, hT1R1 mutant E301A; type: cell-based; conditions: E301 mutant, FIG. 11
T2 construct: expressed in transfected cells; host or cells: HEK293, transient transfection
T2 sequence (Q7RTX1 21-841 E301A): T1 sequence (Q7RTX1 21-841 D192A) with A172D, E281A
T2 sequence (Q923K1 21-858 partner): T1 sequence (Q923K1 21-858 partner)
Description: as §1

In the case of N[C@@H](CCC(=O)O)C(=O)O [L-Glu, L-glutamate], the “activity against L-Glu” value [1] is reported as “significant reduced activity” and the “activity against L-Glu” value [2] is reported as “significant reduced activity”.
